Test results as given in patent publication US12115178B2, “Acylated active agents and methods of their use for the treatment of autoimmune disorders” (Flagship Pioneering Innovations V, Inc., priority 2018, dated 2024).
Each block holds one compound with its values, some of them ahead of it.

Experiments:
[1] = system: adoptive T-cell transfer mice; assay: Adoptive T-cell transfer study; format: in vivo, CB-17 SCID mice; conditions: compound 44 100 mg/kg, olsalazine 30 mg/kg, through day 42, compared to the vehicle control
Source text: On study day 0, naïve T-cells were obtained from the spleen of 11 to 12 week-old Balb/C mice using the SCID Cell Separation Protocol with the following labelling scheme; CD4+CD45RB^highCD25− and CD4+CD45RB^lowCD25+ cell (APC CD4 Antibody (100412), FITC CD45RB Antibody (103306), PE CD25 Antibody (101904), from BioLegend, San Diego, CA, and CD4 cell enrichment kit: 19752A, Stemcell Technologies, Cambridge, MA) and the 4×10^5 of CD4^+CD45RB^highCD25− cells were transferred 6-7 weeks old CB-17 SCID mice. Recipient mice were randomized based on their body weight (n=12 mice/group), and received […] of vehicle (0.5% methyl-cellulose) (vehicle control), 0.5 mg per mouse of anti-IL-12 (positive control), 30 mg/kg of olsalazine (positive treatment group), and 100 mg/kg of compound 44 (compound treatment group) through day 42. On day 42, animals were anesthetized with Isoflurane and bled to exsanguination followed by cervical dislocation. The entire colon was removed and the overall efficacy of compound 44 was assessed based on colon length and weight per length. […] Statistical analysis was performed with GraphPad Prism (GraphPad Software). Mann-Whitney U test was used to assess significance between the vehicle control and each treatment group.

[2] = Detection of compound 44 in whole blood after dosing with compound 44; format: in vivo, Swiss Webster mice; conditions: detected after dosing with Compound 44, oral gavage 10 mg/mL suspension at 10 mL/kg, mice
Protocol: Whole blood (125 uL) was collected submandibular and transferred to chilled K2EDTA tubes pre-filled with 125 uL of acetonitrile and frozen at −70° C. until analysis. Mice (1-3) were sampled at 5 min, 1 hr, and 8 hr. Mice (4-6) were sampled at 15 min, 2 hours and 24 hours. Mice (7-9) were sampled at 30 min and 4 hrs. Quantification of compound 44 was done via bioanalysis using LC-MS/MS.

[3] = system: DSS Colitis; assay: In vivo DSS colitis; set-up: species or system Swiss Webster mice; conditions: 100 mg/kg once a day oral gavage, study day 0 through 7, compared to the vehicle control
Source text: Specific pathogen-free female Swiss Webster mice, 6-8 weeks old, weighing 16-20 g were obtained from Harlan. Mice were randomized into treatment groups (n=10) based on body weight on study day −2. From study day 0 through 5, all groups were given 3% dextran sulfate sodium (DSS, Spectrum, Lot #2DC0020) in drinking water. On study day 5 through, drinking water was switched to water without DSS until the study end on day 7. From study day 0 through 7, the negative control (vehicle), positive control (cyclosporine A), and the treatment groups were given vehicle (1% Methylcellulose (Sigma, 400 cP)), cyclosporine A (70 mg/kg), and compound 44 (100 mg/kg) once a day until study day 7 via oral gavage. On study day 7, animals were anesthetized with Isoflurane and bled to exsanguination followed by cervical dislocation. The entire colon was removed and the overall efficacy of compound 44 was assessed based on colon histopathology. […] Statistical analysis was performed with GraphPad Prism (GraphPad Software). Mann-Whitney U test was used to assess significance between the vehicle control and each treatment group.

[4] = Detection of mesalamine and compound 44 in feces after dosing with compound 44; format: in vivo, Swiss Webster mice; conditions: detected after dosing with Compound 44, oral gavage 10 mg/mL suspension at 10 mL/kg, mice
Protocol: Samples were frozen and stored at −70° C. until analysis. Quantification of mesalamine and compound 44 were done via bioanalysis using LC-MS/MS.

[5] = system: Caco-2 colonocytes; assay: Human Caco-2 barrier integrity assay (TEER); format: cell-based; conditions: 48 hours
Protocol: At 70-80% confluency, cells were trypsinized and seeded in 0.4 cm^2 transwell collagen I coated membranes with supplemented DMEM in both apical and basolateral compartments. Cells were seeded at a density of 200,000 cells per well and maintained for 10 days to form a polarized barrier with a TransEpithelial […] After 48 hours, TEER readings were taken again and viability was measured by CellTiter 96® AQueous One Solution Cell Proliferation Assay (Promega). The percent change in TEER over the 48 hours was determined and normalized to the 0.1% DMSO control (Table 6).

[6] = system: neutrophil; assay: Neutrophil chemokine production assay; format: cell-based, human; conditions: 12 h
Method in brief: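 Human blood neutrophils isolated over Histopaque-1077 with RBC lysis, plated at 2.0e5 cells/well in RPMI complete, then stimulated with LPS (10 μL of 2 μg/mL stock) for 12 h at 37° C, 5% CO2. Supernatant chemokines/cytokines measured by Luminex multiplex; triplicates from two donors averaged.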

[7] = system: naïve CD4+ T cells; assay: Human regulatory T cell differentiation assay; format: cell-based; conditions: 6 days
Protocol: Peripheral blood mononuclear cells (PBMCs) from whole blood donated by health volunteers were separated by Ficoll-Paque gradient centrifugation and naïve CD4^+ T cells were subsequently isolated using magnet beads (EasySep™ Human Naïve CD4^+ T Cell Isolation Kit, Cambridge, MA). For regulatory T cell (Treg) differentiation assay, naïve CD4^+ T cells were cultured (1-10×10^4 cells) in CTS OpTmizer medium for 6 days and stimulated with 5 ng/ml TGF-β, 100 U/ml IL-2, and ImmunoCult™ Human […] T Cell Activator; Stemcell #10990) with/without our Compounds. Cell viability was determined using a viability dye (eBioscience Fixable Viability Dye eFluor 780: ThermoFisher 65-0865-14) at 1:500 dilution. The cells were gated for Treg, defined as Live, CD11c^−, CD14^−, CD19^−, CD8^−, CD4^+, CD3^+, CD25^+, FOXP3^+. Percent (%) Tregs were calculated as percentage of CD4^+, CD25^+, FOXP3^+ cells over total CD4 T cells. Statistical analysis was performed with GraphPad Prism Software Using One-Way ANOVA.

[8] = system: AhR; assay: AhR activation in Caco-2 cells through CYP1A1 mRNA expression; conditions: overnight
Protocol: Caco-2 cells from American Type Culture Collection (ATCC) were plated in a sterile tissue culture treated 96-well plate (ThermoFisher) at […], and grown overnight at 37° C., 5% CO2 in DMEM complete (Gibco) in order to achieve confluence. After the incubation medium was aspirated off of the Caco-2 monolayers, tissues were then washed with 200 μL of warmed PBS solution, and subsequently 190 μL of pre-warmed growth medium was added to each well. Compounds of interest were diluted at a 20× concentration in growth medium containing 2% DMSO, and 10 μL of compound solutions were added to respective wells in triplicate. Compounds where incubated overnight at 37° C., 5% CO2. 2-(1′H-indole-3′-carbonyl)-thiazole-4-carboxylic acid methyl ester (ITE) was used as the positive control for AhR activation at 1 and 100 μM concentrations. At the end of the incubation, medium was aspirated off of the Caco-2 cells, and the cells washed with 100 μL of cold PBS solution. RNA was extracted via the TaqMan™ Gene Expression Cells-to-CT™ Kit (ThermoFisher) according to the manufacturers protocol. The QuantStudio 6 Flex (Applied Biosciences) was used to analyze mRNA levels of CYP1A1 using GAPDH as the endogenous control. TaqMan™ probe sets for both genes were acquired from ThermoFisher. Samples were run in triplicate and data was analyzed using the QuantStudio software and reported as linear (Table 1) and log 2(ΔΔCT) values. Statistical analysis was performed using a two-tailed t-test comparing CYP1A1 levels in the presence of each individual compound to the vehicle negative control.

[9] = Assay 1. Stability in Simulated Gastric Fluid (SGF); format: in vitro ADME; conditions: SGF pH 1.6 with pepsin, 1 μM, 37° C.
Method in brief: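 Compound at 1 μM final (from 1 mM DMSO stock) incubated at 37° C in SGF: NaCl medium at pH 1.6 with FaSSIF powder and 0.1 mg/mL pepsin, prepared fresh. Aliquots taken at T0 and regular intervals, quenched with equal volume acetonitrile; LC/MS gives degradation rate.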

[10] = system: CD4+CD25+ Treg cells; assay: In vivo induction of CD4+CD25+ Treg cells in high-fat diet fed mice; conditions: C57BL/6 mice on high-fat diet, 6% in diet ad libitum; compared to EGCG, acetate, or their combination
Source text: Acylated active agents disclosed herein may be useful in modulating autoimmunity markers and for treating autoimmune disorders.

[11] = Assay 2. Stability in Simulated Intestinal Fluid (SIF); format: in vitro ADME; conditions: SIF pH 6.7 with pancreatin, 1 μM, 37° C.
Method in brief: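 Compounds at 1 µM (from 1 mM DMSO stock) were incubated at 37 °C with agitation in simulated intestinal fluid: FaSSIF in pH 6.7 phosphate buffer with pancreatin. Aliquots taken from T0 onward were quenched with acetonitrile and analyzed by LC/MS for degradation rate.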

Structure (SMILES): O=C(O)c1cc(/N=N/c2ccc(O)c(C(=O)O)c2)ccc1O [olsalazine, reference compound]
colon weight per length (FIG. 3B) [1]: significantly increased the colon weight per length

Concentration, uM (compound 44) [2]: 0.68 µM
Concentration, uM (compound 44) [4]: 10.72 µM
Structure (SMILES): CCCC(=O)O[C@H]1[C@H](OC(=O)CCC)COC(Oc2ccc(N)cc2C(=O)O)[C@@H]1OC(=O)CCC.Cl (stereo in doubt) [Compound 44, 5-amino-2-(((2S,3R,4S,5R)-3,4,5-tris(butyryloxy)tetrahydro-2H-pyran-2-yl)oxy)benzoic acid hydrochloride]
colon length (FIG. 3A) [1]: significant increased
colon weight per length (FIG. 3B) [1]: reduced
mucosal thickness (colon histopathology, FIG. 2) [3]: significant reduction in mucosal thickness

Structure (SMILES): O=C(O[C@@H]1Cc2c(O)cc(O)cc2O[C@@H]1c1cc(O)c(O)c(O)c1)c1cc(O)c(O)c(O)c1 [EGCG, epigallocatechin gallate]
% Change in TEER from DMSO ([5]; 100 nM + cytokines): − (<125%: −)
% Change in TEER from DMSO ([5]; 1 μM + cytokines): − (<125%: −)
% IL-8 (Vehicle + LPS = 100%) ([6]; 0.1 μM): − (− = >90% Vehicle)
% MIP-1α (Vehicle + LPS = 100%) ([6]; 0.1 μM): − (− = >90% Vehicle)
% MIP-1β (DMSO + LPS = 100%) ([6]; 0.1 μM): − (− = >90% Vehicle)
% IL-8 (Vehicle + LPS = 100%) ([6]; 1.0 μM): − (− = >90% Vehicle)
% MIP-1α (Vehicle + LPS = 100%) ([6]; 1.0 μM): − (− = >90% Vehicle)
% MIP-1β (DMSO + LPS = 100%) ([6]; 1.0 μM): − (− = >90% Vehicle)
Cell viability % DMSO ([7]; 100 nM): = (90%> <110%: =)
Treg induction % DMSO ([7]; 100 nM): = (90%> <110%: =)
Cell viability % DMSO ([7]; 1 uM): = (90%> <110%: =)
Treg induction % DMSO ([7]; 1 uM): = (90%> <110%: =)
Average CYP1A1 mRNA levels ([8]; 0.1 μM): − (- = <2-fold Vehicle)
Average CYP1A1 mRNA levels ([8]; 1.0 μM): − (- = <2-fold Vehicle)

Structure (SMILES): CC(=O)Oc1cc(OC(C)=O)c2c(c1)O[C@H](c1cc(OC(C)=O)c(OC(C)=O)c(OC(C)=O)c1)[C@H](OC(=O)c1cc(OC(C)=O)c(OC(C)=O)c(OC(C)=O)c1)C2 [Compound 2, [(2R,3R)-5,7-diacetoxy-2-(3,4,5-triacetoxyphenyl)chroman-3-yl] 3,4,5-triacetoxybenzoate]
Assay 1 (SGF) (% Remaining @ 1 hour) [9]: C (>75% of the tested compound remaining)
CD4+CD25+ Treg cells (CD4+CD25+ cell counts as a percentage of all CD4+ T cells, FIG. 1) [10]: induce CD4^+CD25^+ Treg cells
Assay 2 (SIF) (% @ Remaining 4 hours) [11]: A (<25% of the tested compound remaining)
